Data on two molecules can be found in paper PMC8364350 (Nature ecology & evolution, 2020).

The target of data set [1] is T1, HsCSAD (Homo sapiens, UniProt Q9Y600).
T1 sequence (Q9Y600 1-493): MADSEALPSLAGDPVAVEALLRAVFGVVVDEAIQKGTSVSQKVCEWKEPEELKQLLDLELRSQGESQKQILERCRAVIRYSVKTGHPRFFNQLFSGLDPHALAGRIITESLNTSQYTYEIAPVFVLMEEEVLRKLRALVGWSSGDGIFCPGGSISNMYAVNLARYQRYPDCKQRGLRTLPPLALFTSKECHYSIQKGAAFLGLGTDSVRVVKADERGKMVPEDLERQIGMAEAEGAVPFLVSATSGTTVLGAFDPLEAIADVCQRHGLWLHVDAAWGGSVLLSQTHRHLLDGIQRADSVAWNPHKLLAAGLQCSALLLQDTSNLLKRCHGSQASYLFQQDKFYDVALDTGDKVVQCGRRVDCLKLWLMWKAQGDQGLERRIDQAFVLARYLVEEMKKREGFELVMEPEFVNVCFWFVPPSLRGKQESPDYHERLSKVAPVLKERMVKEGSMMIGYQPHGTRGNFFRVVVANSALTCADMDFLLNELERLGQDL
Description: 1H NMR product quantification, specific activity. The following applies: 5 min reaction stopped with 1 M HCl, pH 7.0, 25 C; preferred substrate. The data set is classed as biochemical.

Data set [2] has as its target T2, DrCSAD (Danio rerio, UniProt A0A8M1N2X8).
T2 sequence (A0A8M1N2X8 1-500): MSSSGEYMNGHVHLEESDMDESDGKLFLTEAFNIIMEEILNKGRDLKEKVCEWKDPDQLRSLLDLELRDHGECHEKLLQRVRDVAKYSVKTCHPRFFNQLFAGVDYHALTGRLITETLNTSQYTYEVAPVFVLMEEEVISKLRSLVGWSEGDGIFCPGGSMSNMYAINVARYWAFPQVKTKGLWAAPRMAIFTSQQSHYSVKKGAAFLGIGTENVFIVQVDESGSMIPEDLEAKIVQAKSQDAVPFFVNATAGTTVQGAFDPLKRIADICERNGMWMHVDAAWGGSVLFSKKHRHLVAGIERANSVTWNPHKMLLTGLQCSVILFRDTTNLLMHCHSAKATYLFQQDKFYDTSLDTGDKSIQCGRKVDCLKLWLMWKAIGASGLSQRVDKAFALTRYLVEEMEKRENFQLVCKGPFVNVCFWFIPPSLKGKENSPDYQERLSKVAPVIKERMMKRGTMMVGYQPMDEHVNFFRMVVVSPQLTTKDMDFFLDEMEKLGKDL
Description: 1H NMR product quantification, specific activity. The data set is classed as biochemical. To be noted: 5 min reaction stopped with 1 M HCl, pH 7.0, 25 C; preferred substrate.

Substrate in data set [3]: N[C@@H](CS(=O)(=O)O)C(=O)O
Kind of data set: time-resolved 1H NMR, integrated Michaelis-Menten fit of progress curve. To be noted: 50 mM NaH2PO4 pH 7.0, 25 C, H2O:D2O 9:1, example time course. The data set is classed as biochemical, Gallus gallus.

Regarding `N[C@@H](CS(=O)O)C(=O)O` [CSA, cysteine sulfinic acid], the specific activity entry was “We confirmed the opposite preference for the CSA substrate in human CSAD” in data set [1] and “observed the same preference for CSA in a CSAD ortholog of a basal vertebrate” in data set [2].

B1: GgCAD (Gallus gallus) (protein)
chain: MAEQSDLERPAVDGAAGEEFLRAAFQVLLEEAVRKGTDVAQKVCEWKEPHELRELLDLELRSHGEPAGRLLERCRDIIRYSVKTCHPRFFNQLFSGLDHHALAGRLLTETLNTSQYTYEIAPVFVLMEEVVLAKLRELVGWNSGDGIFCPGGSISNMYAMNVARFQRFPESRQQGSRALPRLVLFASEECHYSIQKGAAFLGIGTDNVVLVRADERGKMIPEELEKEIERVKSEGAVPFFVSATSGTTVLGAFDPLGPVADVCQRHGLWLHVDAAWGGSALLSRKHRQLLAGIERADSVAWNPHKMLTVGLQCSAFLLRDDSGLLQRCHGAGAAYLFQPDKFYDVMFDTGDKTVQCGRRVDCLKLWLLWKAVGSEGLEQRVDRAFACTSYLAAEMKRRDGFQLVLEPEFINLCFWFVPPSLRGQQGCTDFGPRLGKVAPAIKERMMKEGSMMVGYQPHGTRPNFFRQIVTSPAVTRADLDFFLDEIERLGCDL
As for B1, the Km in data set [3] was 6.95 ± 3.23 mM.
